Experimental data taken from PMC9402538, “Rational design of a sensitivity-enhanced tracer for discovering efficient APC–Asef inhibitors” (Nature Communications, 2022).
“And” between values parts separate entries of the source, which are not always exact repeats. Equal entries are not always repeated. Where two headings read alike, the source gives them in different places. Where a SMILES comes first, the peptide text is derived from it. The star is where a group is joined. Adamantane1carbonyl = O=C(C12CC3CC(CC(C3)C1)C2)*; Thiophene2carbonyl = O=C(c1cccs1)*; Bz = O=C(c1ccccc1)*; X2 = O=C(c1cncs1)*

Legend:
APC (303–739) = molecular target: T1, APC (303–739) (Homo sapiens, UniProt P25054); test: FP competitive assay using tracer 7; format: binding; conditions: for FP(mp): Tracer 7, replicate wells
T1 sequence (P25054 303-739): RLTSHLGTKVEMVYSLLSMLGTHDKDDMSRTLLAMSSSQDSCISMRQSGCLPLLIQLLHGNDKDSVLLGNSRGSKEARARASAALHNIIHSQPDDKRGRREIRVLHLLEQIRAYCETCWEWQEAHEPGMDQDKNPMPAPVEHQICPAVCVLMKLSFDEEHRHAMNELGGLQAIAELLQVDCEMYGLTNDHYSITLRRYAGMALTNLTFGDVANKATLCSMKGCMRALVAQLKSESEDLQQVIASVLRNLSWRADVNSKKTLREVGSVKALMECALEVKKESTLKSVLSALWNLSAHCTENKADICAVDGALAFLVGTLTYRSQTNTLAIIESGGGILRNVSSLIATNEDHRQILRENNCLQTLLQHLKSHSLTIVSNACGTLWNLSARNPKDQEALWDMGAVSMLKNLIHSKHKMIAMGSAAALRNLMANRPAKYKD
Method: (§1) FITC-labeled tracer peptides were obtained from Changzhou Kanglong Biotech Ltd. (Changzhou, Jiangsu, China). […]. The FP signal changes upon tracer binding were measured after 1.5 h of incubation using a Synergy neo microplate reader (BioTek Instruments, Inc.) and plotted against the protein concentration. The corresponding EC50 values were generated by fitting the curves with a nonlinear regression model. […]. To make a working solution, APC (303–739) was diluted in FP buffer (50 mM HEPES, pH 7.5, 300 mM NaCl, 1 mM EDTA, 1 mM DTT). The diluted APC protein (91 μL) was combined with a serial dilution of peptides (4 μL) and incubated at room temperature for 1 h, followed by the addition of 5 μL of 400 nM tracer 7. The FP signals were measured after 1.5 h of incubation at room temperature using a Synergy neo microplate reader. Three controls were included on each plate, i.e., blank (without protein and tracer), 100% inhibition (free tracer only), and 0% inhibition (protein/tracer complex only) controls. All experiments were performed in triplicate. The IC50 values of peptides were calculated by nonlinear regression analysis using GraphPad Prism 7.0 software.

APC = molecular target: T2, APC (Homo sapiens, UniProt P25054); test: FP competitive assay using tracer 1; format: binding; conditions: for FP(mp): Tracer 1, triplicate raw readings
T2 sequence (P25054 303-739): T1 sequence (P25054 303-739)
Method: In our previous study, we established an FP assay for screening APC–Asef inhibitors using FITC-labeled tracer 1 (Ac–^176[…][FITC]^195–NH2)[16]. […]. However, their Kd values measured by isothermal titration calorimetry (ITC) actually vary up to more than 20 times[16],[17]. […].
as §1, with “The diluted APC protein (91 μL) was combined with a serial dilution of peptides (4 μL) and incubated at room temperature for 1 h, followed by the addition of 5 μL of 400 nM tracer 7.” left out

[1] = Repeat 1, Table 3 source data, read-out: IC50(μM) Repeat 1
[2] = Repeat 2, Table 3 source data, read-out: IC50(μM) Repeat 2
[3] = Repeat 3, Table 3 source data, read-out: IC50(μM) Repeat 3
[4] = mean of 3 repeats, Table 3 source data, read-out: IC50(μM) mean
[5] = Supplementary Table 4, read-out: IC50, Tracer 1

Row | FP(mp) (APC (303–739); Conc. 0.0061 μM) | FP(mp) (APC (303–739); Conc. 0.0122 μM) | FP(mp) (APC (303–739); Conc. 0.0244 μM) | FP(mp) (APC (303–739); Conc. 0.05 μM) | FP(mp) (APC (303–739); Conc. 0.10 μM) | FP(mp) (APC (303–739); Conc. 0.20 μM) | FP(mp) (APC (303–739); Conc. 0.39 μM) | FP(mp) (APC (303–739); Conc. 0.78 μM) | FP(mp) (APC (303–739); Conc. 1.56 μM) | FP(mp) (APC (303–739); Conc. 3.13 μM) | FP(mp) (APC (303–739); Conc. 6.25 μM) | FP(mp) (APC (303–739); Conc. 12.50 μM) | FP(mp) (APC (303–739); Conc. 25.00 μM) | FP(mp) (APC (303–739); Conc. 50.00 μM) | FP(mp) (APC; Conc. 0.05 μM) | FP(mp) (APC; Conc. 0.10 μM) | FP(mp) (APC; Conc. 0.20 μM) | FP(mp) (APC; Conc. 0.39 μM) | FP(mp) (APC; Conc. 0.78 μM) | FP(mp) (APC; Conc. 1.56 μM) | SMILES | also measured
1 |  |  |  |  |  |  |  |  |  |  |  |  |  |  |  |  |  |  |  |  | CC(C)C[C@H](NC(=O)[C@H](CO)NC(=O)[C@H](CCC(=O)O)NC(=O)CNC(=O)[C@H](C)NC(=O)c1ccccc1)C(=O)N[C@@H](Cc1ccc(O)cc1)C(N)=O [MAI-463] (Bz-AGESLY-NH2) | IC50 (APC (303–739); IC50, Tracer 7, Supplementary Table 4): 1.3 ± 0.05 µM; IC50 (APC): 730 ± 150 nM
2 | 310 mp and 307 mp and 309 mp | 303 mp and 302 mp and 307 mp | 307 mp and 305 mp and 308 mp | 302 mp and 304 mp and 307 mp | 294 mp and 293 mp and 295 mp | 282 mp (2×) and 276 mp | 256 mp and 254 mp and 252 mp | 224 mp and 222 mp and 229 mp | 180 mp and 186 mp and 189 mp | 136 mp and 134 mp and 137 mp | 106 mp (2×) and 108 mp | 85 mp and 86 mp and 89 mp | 67 mp and 68 mp and 71 mp | 57 mp and 60 mp and 59 mp | 181 mp | 177 mp and 182 mp and 179 mp | 161 mp and 172 mp and 174 mp | 139 mp and 163 mp and 161 mp | 68 mp and 100 mp and 109 mp | 56 mp and 64 mp and 68 mp | CC(C)C[C@H](NC(=O)[C@H](CO)NC(=O)[C@H](CCC(=O)O)NC(=O)CNC(=O)[C@H](C)NC(=O)C12CC3CC(CC(C3)C1)C2)C(=O)N[C@@H](Cc1ccc(O)cc1)C(=O)N[C@@H](CCC(=O)O)C(N)=O [MAI-505] (Adamantane1carbonyl-AGESLYE-NH2) | IC50 (APC (303–739); [1]): 1.57 µM; IC50 (APC (303–739); [2]): 1.73 µM; IC50 (APC (303–739); [3]): 1.57 µM; IC50 (APC (303–739); [4]): 1.62 µM; IC50 (APC; [5]): 440 ± 120 nM; FP(mp) (APC; Conc. 3.13 μM): 57 mp and 55 mp and 56 mp; FP(mp) (APC; Conc. 6.25 μM): 52 mp and 51 mp; FP(mp) (APC; Conc. 12.50 μM): 51 mp and 49 mp and 50 mp; FP(mp) (APC; Conc. 25.00 μM): 47 mp and 50 mp; FP(mp) (APC; Conc. 50.00 μM): 49 mp and 51 mp; FP(mp) (APC; Conc. 100.00 μM): 50 mp and 48 mp; FP(mp) (APC; Conc. 200.00 μM): 50 mp and 51 mp; FP(mp) (APC; Conc. 400.00 μM): 50 mp and 49 mp
3 | 306 mp | 306 mp and 305 mp and 307 mp | 290 mp (2×) and 289 mp | 268 mp and 265 mp and 269 mp | 236 mp and 233 mp (2×) | 190 mp and 195 mp and 192 mp | 150 mp and 147 mp and 149 mp | 113 mp (2×) and 114 mp | 85 mp and 90 mp and 86 mp | 73 mp and 71 mp and 74 mp | 65 mp and 60 mp and 61 mp | 61 mp and 56 mp and 59 mp | 52 mp and 55 mp and 57 mp | 58 mp and 50 mp and 54 mp | 185 mp and 183 mp and 179 mp | 180 mp and 181 mp and 176 mp | 173 mp and 176 mp | 162 mp and 161 mp | 105 mp and 98 mp and 106 mp | 54 mp and 56 mp | CC(C)C[C@H](NC(=O)[C@H](CO)NC(=O)[C@H](CCC(=O)O)NC(=O)CNC(=O)[C@H](C)NC(=O)c1cncs1)C(=O)N[C@@H](Cc1ccc(O)cc1)C(=O)N[C@@H](CCC(=O)O)C(N)=O [MAI-508] (X2-AGESLYE-NH2) | IC50 (APC (303–739); [1]): 0.221 µM; IC50 (APC (303–739); [2]): 0.194 µM; IC50 (APC (303–739); [3]): 0.241 µM; IC50 (APC (303–739); [4]): 0.219 µM; IC50 (APC; [5]): 480 ± 160 nM; FP(mp) (APC; Conc. 3.13 μM): 52 mp and 48 mp and 49 mp; FP(mp) (APC; Conc. 6.25 μM): 50 mp and 47 mp and 48 mp; FP(mp) (APC; Conc. 12.50 μM): 47 mp and 46 mp; FP(mp) (APC; Conc. 25.00 μM): 50 mp and 48 mp and 46 mp; FP(mp) (APC; Conc. 100.00 μM): 50 mp and 47 mp; FP(mp) (APC; Conc. 200.00 μM): 51 mp and 48 mp and 49 mp; FP(mp) (APC; Conc. 400.00 μM): 51 mp and 49 mp

Row | SMILES | FP(mp) (APC (303–739); Conc. 0.0061 μM) | FP(mp) (APC (303–739); Conc. 0.0122 μM) | FP(mp) (APC (303–739); Conc. 0.0244 μM) | FP(mp) (APC (303–739); Conc. 0.05 μM) | FP(mp) (APC (303–739); Conc. 0.10 μM) | FP(mp) (APC (303–739); Conc. 0.20 μM) | FP(mp) (APC (303–739); Conc. 0.39 μM) | FP(mp) (APC (303–739); Conc. 0.78 μM) | FP(mp) (APC (303–739); Conc. 1.56 μM) | FP(mp) (APC (303–739); Conc. 3.13 μM) | FP(mp) (APC (303–739); Conc. 6.25 μM) | FP(mp) (APC (303–739); Conc. 12.50 μM) | FP(mp) (APC (303–739); Conc. 25.00 μM) | FP(mp) (APC (303–739); Conc. 50.00 μM) | FP(mp) (APC; Conc. 0.05 μM) | FP(mp) (APC; Conc. 0.10 μM) | FP(mp) (APC; Conc. 0.20 μM) | FP(mp) (APC; Conc. 0.39 μM) | FP(mp) (APC; Conc. 0.78 μM) | FP(mp) (APC; Conc. 1.56 μM) | also measured
4 | CC(C)C[C@H](NC(=O)[C@H](CO)NC(=O)[C@H](CCC(=O)O)NC(=O)CNC(=O)[C@H](C)NC(=O)c1cccs1)C(=O)N[C@@H](Cc1ccc(O)cc1)C(=O)N[C@@H](CCC(=O)O)C(N)=O [MAI-507] (Thiophene2carbonyl-AGESLYE-NH2) | 306 mp and 304 mp and 305 mp | 299 mp and 301 mp (2×) | 278 mp and 279 mp and 280 mp | 256 mp (2×) and 257 mp | 216 mp and 219 mp (2×) | 178 mp (2×) and 173 mp | 138 mp and 133 mp and 136 mp | 107 mp and 99 mp and 101 mp | 89 mp and 77 mp and 80 mp | 75 mp and 72 mp (2×) | 59 mp and 54 mp and 58 mp | 60 mp (2×) and 54 mp | 54 mp and 51 mp and 52 mp | 57 mp (2×) and 54 mp | 180 mp and 182 mp | 173 mp and 180 mp and 179 mp | 168 mp and 169 mp and 173 mp | 130 mp and 156 mp and 153 mp | 56 mp and 61 mp and 98 mp | 53 mp and 54 mp and 52 mp | IC50 (APC (303–739); IC50(μM) Repeat 1, Repeat 1, Table 3 source data): 0.173 µM; IC50 (APC (303–739); IC50(μM) Repeat 2, Repeat 2, Table 3 source data): 0.162 µM; IC50 (APC (303–739); IC50(μM) Repeat 3, Repeat 3, Table 3 source data): 0.175 µM; IC50 (APC (303–739); IC50(μM) mean, mean of 3 repeats, Table 3 source data): 0.17 µM; IC50 (APC (303–739); IC50 ± SD, tracer 7, APC 25 nM, average of three independent experiments): 0.17 ± 0.007 µM; IC50 (APC): 340 ± 120 nM; FP(mp) (APC; Conc. 3.13 μM): 53 mp and 50 mp and 52 mp; FP(mp) (APC; Conc. 6.25 μM): 50 mp and 51 mp; FP(mp) (APC; Conc. 12.50 μM): 50 mp and 47 mp and 48 mp; FP(mp) (APC; Conc. 25.00 μM): 51 mp and 47 mp and 48 mp; FP(mp) (APC; Conc. 50.00 μM): 49 mp and 47 mp and 48 mp; FP(mp) (APC; Conc. 100.00 μM): 48 mp and 47 mp; FP(mp) (APC; Conc. 200.00 μM): 48 mp; FP(mp) (APC; Conc. 400.00 μM): 49 mp and 48 mp
